# From patent US20210263039A1, “APPLICATION OF NIEMANN-PICK C1 PROTEIN IN DIAGNOSIS AND TREATMENT OF CANCER” (BEIJING PROTEOME RESEARCH CENTER, priority 2018, published 2021)
# Where “and” joins values, the source holds several entries; their conditions need not be identical. Equal values may be shown once.
# Key:
# [1] = liver cancer patients; cited from earlier work
# [2] = tested on: PLC/PRF/5 liver cancer cell line; test: CCK8 proliferation experiment, PLC/PRF/5; type: cell-based, human; conditions: inhibitor 10 μM and 20 μM groups vs 1‰ DMSO, OD 450 nm at 0-72 h
# Description: (§1) 1) On the first day, PLC/PRF/5 or HepG2 cells were seeded onto a 6-well plate.
# (§2) 2) On the second day, when the cell confluence was about 40-50%, NPC1-sh or NPC1-control lentivirus was added at 200 μl/well for virus infection.
# (§3) 3) On the third day, puromycin was added to infected PLC/PRF/5 or HepG2 cells to a final concentration of 2 μg/mL for selection.
# (§4) 4) On the sixth day, part of the cells was collected according to the conventional method for CCK8 experiment, and part of the cells were lysed to obtain proteins and subjected to Western blotting. […]
# (§5) 2) On the second day, after about 24 hours of culture, the cell growth was in the logarithmic growth phase and the culture medium was replaced with a new culture medium with different concentrations of SOAT1 inhibitor in a volume of 100 μL/well. […] 10% CCK8 (100 μL/well) was added to the wells of one 96-well plate, and OD value of 0 h was measured at 450 nm after 1 h, with cell-free wells as background.
# (§6) 3) On the third day, 10% CCK8 was added to the wells of one 96-well plate and OD value of 24 h was measured at 450 nm after 1 h.
# (§7) 4) On the fourth day, 10% CCK8 was added to the wells of one 96-well plate and OD value of 48 h was measured at 450 nm after 1 h.
# (§8) 5) On the fifth day, 10% CCK8 was added to the wells of the last 96-well plate and OD value of 72 h was measured at 450 nm after 1 h. […]
# [3] = tested on: colon cancer cell line HCT116; test: CCK8 proliferation experiment, HCT116; type: cell-based, human
# Description: (§9) 1) On the first day, after routine trypsinization and counting of cells in a 60 mm culture dish, the cells were seeded onto four 96-well plates at a density of 5000 cells/well.
# (§10) 2) On the second day, after about 24 hours of culture, the cell growth was in the logarithmic growth phase and the culture medium was replaced with a new culture medium with different concentrations of SOAT1 inhibitor in a volume of 100 μL/well. 10 μM group, 20 μM group and control group (1‰ DMSO) were set, each group included three repeated wells. 10% CCK8 (100 μL/well) was added to the wells of one 96-well plate, and OD value of 0 h was measured at 450 nm after 1 h, with cell-free wells as background.
# as §6, §7
# (§11) 5) On the fifth day, 10% CCK8 was added to the wells of the last 96-well plate and OD value of 72 h was measured at 450 nm after 1 h.
# (§12) 6) OD values at all time points were summarized and a growth curve was drawn.
# [4] = tested on: plasma membrane cholesterol; test: Filipin III-based cholesterol staining of the plasma membrane; type: cell-based
# Description: (§13) Reagents: Cholesterol Cell-Based Detection Assay Kit (No10009779) was purchased from Cayman. Human sIL6R ELISA kit (BMS214) was purchased from ebioscience. The relevant experiments were conducted according to the instructions.
# [5] = tested on: non-small cell lung cancer cell line A549; test: CCK8 proliferation experiment, A549; type: cell-based, human
# Description: as §9, §10, §6, §7, §11, §12
# [6] = tested on: Huh7 liver cancer cell line; test: CCK8 proliferation experiment, Huh7; type: cell-based, human; conditions: inhibitor 10 μM and 20 μM groups vs 1‰ DMSO, OD 450 nm at 0-72 h
# Description: as §9, §10, §6, §7, §11, §12
# [7] = tested on: cervical cancer cell line Hela; test: CCK8 proliferation experiment, Hela; type: cell-based, human
# Description: as §9, §10, §6, §7, §11, §12
# STAT3 signaling pathway = STAT3 signaling pathway activation after IL6 stimulation (STAT3-Y705 antibody); type: cell-based
# Text: The conventional western blotting method was adopted.
# STAT3-Y705 (EP2147Y) antibody was purchased from Abcam.
# IL6R = test: sIL6R ELISA, shedding of IL6R from the cell membrane; type: cell-based
# Description: as §13
# [8] = tested on: esophageal cancer cell line ECA109; test: CCK8 proliferation experiment, ECA109; type: cell-based, human
# Description: as §9, §10, §6, §7, §11, §12
# [9] = tested on: human hepatocarcinoma HepG2 liver orthotopic transplantation tumors; test: Liver orthotopic transplantation tumors in nude mice bearing human hepatocarcinoma HepG2 cells; type: in vivo
# Text: A total of 30 female Nu/Nu nude mice aged 5-7 weeks and weighing 18.0-21.0 g were purchased from Beijing Vital River Laboratory Animal Technology Co., Ltd., animal certificate was SCXK (JING)-2015-0001. The test animals were kept in sterile independent ventilation cages (IVC), with 5-6 mice per cage. The litter was corncob litter sterilized by ^60Co radiation, with a particle size of 4-6 mm. The animals were fed with sterilized feed specially formulated for mice and were given pure water to drink freely. The temperature in the animal laboratory was maintained at about 25° C., the relative humidity was maintained at 40-70%, and the daily light was 12 hours.
# The cells in the logarithmic growth phase were digested with trypsin and collected, washed and resuspended with normal saline, so that the final cell concentration was about 1×10^7 cells/ml suspension. 0.2 ml of tumor cell suspension was injected under the skin of the right forelimb axillary in nude mice, and the tumor-bearing nude mice were established for passage and preservation.
# When the subcutaneous tumor volume of the nude mice for preservation grew to 1000-1500 mm^3, tumors were removed and cut into tumor blocks of about 1.0 mm^3 for use under aseptic conditions. The nude mice to be operated were anesthetized and fixed on the operating table, and the abdominal skin was disinfected. An incision of about 1 cm was made in the upper right abdomen to expose the liver and the animal was covered with surgical drapes. The prepared tumor block was put into a special inoculation trocar, the tumor block was implanted into the liver with the trocar, and the bleeding wound was treated with a sterile cotton swab to stop bleeding. Then the liver after the operation was put back into the abdominal cavity of the mouse, and the abdominal muscles and skin of the incision were sutured sequentially with No. 4/0 surgical suture needle.
# The experiment preset model control group and U18666A group.
# Model animals were examined by B-ultrasound 3 weeks after operation, and grouped randomly according to B-ultrasound results. The test drug U18666A was administered intraperitoneally, once a day.
# After the experiment, the animals were sacrificed by cervical dislocation. The liver was dissected, and the tumors visible to the naked eye were removed and weighed. All dissected tissues were preserved in a 4% formaldehyde solution for routine pathological examination.
# Data were represented as x±SD; Tumor growth inhibition rate=(tumor weight in the control group−tumor weight in the administration group)/tumor weight in the control group×100%. All analyses were completed with GrghPad Prism software, and P<0.05 was considered to indicate a significant difference.
# [10] = tested on: leukemia cell line Jurkat; test: CCK8 proliferation experiment, Jurkat; type: cell-based, human
# Description: as §9, §10, §6, §7, §11, §12
# [11] = tested on: HepG2 liver cancer cell line; test: CCK8 proliferation experiment, HepG2; type: cell-based, human; conditions: inhibitor 10 μM and 20 μM groups vs 1‰ DMSO, OD 450 nm at 0-72 h
# Description: as §1, §2, §3, §4, §5, §6, §7, §8
# [12] = tested on: MHCC97H liver cancer cell line; test: CCK8 proliferation experiment, MHCC97H; type: cell-based, human; conditions: inhibitor 10 μM and 20 μM groups vs 1‰ DMSO, OD 450 nm at 0-72 h
# Description: as §9, §10, §6, §7, §11, §12
# liver cancer cells = test: Migration of liver cancer cells; type: cell-based
SMILES,prolongation of the survival period of patients [1] [months],proliferation of liver cancer cells (CCK8 growth curve) [2],proliferation of common cancer cell lines [3],plasma membrane cholesterol [4],proliferation of common cancer cell lines [5],proliferation of liver cancer cells (CCK8 growth curve) [6],proliferation of common cancer cell lines [7],activation of STAT3 signaling pathway (STAT3 signaling pathway),shedding of IL6R receptor on the cell membrane (IL6R),proliferation of common cancer cell lines [8],"Average weight (g) Begining ([9]; body weight at beginning, nude mice, x±SD) [g]","Average weight (g) End ([9]; body weight at end, i.p., 20 mg/kg, once a day, 23 days, x±SD) [g]","Tumor growth inhibition rate (%) ([9]; by tumor weight vs control group, i.p., 20 mg/kg, once a day, 23 days)","Tumor weight ([9]; group mean x±SD, i.p., 20 mg/kg, once a day, 23 days) [g]","Tumor weight (g), individual tumors ([9]; single animals of the group, i.p., 20 mg/kg, once a day, 23 days, 20 mg/kg)",proliferation of common cancer cell lines [10],proliferation of liver cancer cells (CCK8 growth curve) [11],proliferation of liver cancer cells (CCK8 growth curve) [12],migration of liver cancer cells (liver cancer cells)
CNC(=O)c1cc(Oc2ccc(NC(=O)Nc3ccc(Cl)c(C(F)(F)F)c3)cc2)ccn1 [Sorafenib],3,–,–,–,–,–,–,–,–,–,–,–,–,–,–,–,–,–,–
CCN(CC)CCO[C@H]1CC[C@@]2(C)C(=CC[C@@H]3[C@@H]2CC[C@]2(C)C(=O)CC[C@@H]32)C1.Cl [U18666A],–,significantly inhibit the proliferation,significantly inhibited the proliferation,significantly down-regulated,significantly inhibited the proliferation,significantly inhibit the proliferation,significantly inhibited the proliferation,blocked,increased shedding,significantly inhibited the proliferation,23.74 ± 0.86,23.34 ± 2.29,62.1,0.3574 ± 0.3914,0.0333 g and 0.0916 g and 0.0957 g and 0.0958 g and 0.1653 g and 0.3852 g and 0.5450 g and 0.5512 g and 1.2533 g,significantly inhibited the proliferation,significantly inhibit the proliferation,significantly inhibit the proliferation,significantly inhibit
